Numbering of substitutions follows the chain as printed. Like-named read-outs stand apart in the source and are kept apart here.
Columns and labels:
Fam20A [1] = target: T1, Fam20A (Homo sapiens, UniProt Q96MK3); assay: thermal stability shift assay (SYPRO Orange), dTm vs concentration fit; format: binding; details: 20 mM HEPES pH 7.5, 100 mM NaCl
T1 construct: residues 69-529; secreted from Hi5 insect cells; N-terminal 6xHis-SUMO tag removed by TEV protease; dimer in crystal, concentration-dependent dimer/oligomer in solution
T1 sequence (Q96MK3 69-529): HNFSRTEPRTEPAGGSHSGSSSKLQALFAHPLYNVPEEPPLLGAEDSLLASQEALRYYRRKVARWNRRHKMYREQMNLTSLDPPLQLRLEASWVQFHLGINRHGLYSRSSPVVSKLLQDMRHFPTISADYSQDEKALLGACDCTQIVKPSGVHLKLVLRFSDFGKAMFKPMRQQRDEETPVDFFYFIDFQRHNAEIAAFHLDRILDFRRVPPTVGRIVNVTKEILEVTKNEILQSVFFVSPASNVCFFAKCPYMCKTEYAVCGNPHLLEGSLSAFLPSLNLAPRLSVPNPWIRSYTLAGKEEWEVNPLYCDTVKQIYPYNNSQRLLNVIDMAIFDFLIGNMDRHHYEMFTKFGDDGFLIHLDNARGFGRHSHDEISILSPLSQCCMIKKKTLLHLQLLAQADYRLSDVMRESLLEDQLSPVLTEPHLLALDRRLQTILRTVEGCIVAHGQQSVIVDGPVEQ

Fam20A [2] = target: T2, Fam20A (Homo sapiens, UniProt Q96MK3, K223A); assay: thermal stability shift assay (SYPRO Orange); format: binding; details: 100 μM ATP; 20 mM HEPES pH 7.5, 100 mM NaCl
T2 construct: residues 69-529; secreted from Hi5 insect cells; N-terminal 6xHis-SUMO tag removed by TEV protease; dimer in crystal, concentration-dependent dimer/oligomer in solution
T2 sequence (Q96MK3 69-529 K223A): T1 sequence (Q96MK3 69-529) with K155A

Fam20A [3] = target: T3, Fam20A (Homo sapiens, UniProt Q96MK3, D430A); assay: thermal stability shift assay (SYPRO Orange); format: binding; details: 100 μM ATP; 20 mM HEPES pH 7.5, 100 mM NaCl
T3 construct: residues 69-529; secreted from Hi5 insect cells; N-terminal 6xHis-SUMO tag removed by TEV protease; dimer in crystal, concentration-dependent dimer/oligomer in solution
T3 sequence (Q96MK3 69-529 D430A): T1 sequence (Q96MK3 69-529) with D362A

Fam20A [4] = target: T1, Fam20A; assay: thermal stability shift assay (SYPRO Orange); format: binding; details: 10 μM nucleotide; no metal ions; 20 mM HEPES pH 7.5, 100 mM NaCl
[5] = target: the molecule itself; assay: SEC; 1 mg or 100 µg purified Fam20A (both in 500 µl) on Superdex 200 increase 10/300 GL, 20 mM HEPES, pH 7.5, 100 mM NaCl

Nc1ncnc2c1ncn2[C@@H]1O[C@H](COP(=O)(O)OP(=O)(O)O)[C@@H](O)[C@H]1O [ADP]
Kd (Fam20A [1]; no cations): Fam20A prefers binding ATP over ADP (Figure 2D)

Nc1ncnc2c1ncn2[C@@H]1O[C@H](COP(=O)(O)OP(=O)(O)OP(=O)(O)O)[C@@H](O)[C@H]1O [ATP]
Kd (Fam20A [1]; no divalent cations, inverted orientation in crystal, read-out: Kd^app): 3 µM | Tm (Fam20A [2]): with Ala has little effect on the ability of Fam20A to bind ATP | Tm (Fam20A [3]): with Ala has little effect on the ability of Fam20A to bind ATP

Nc1ccn([C@@H]2O[C@H](COP(=O)(O)OP(=O)(O)OP(=O)(O)O)[C@@H](O)[C@H]2O)c(=O)n1 [CTP]
ΔTm (Fam20A [4]): Fam20A also binds other nucleoside triphosphates including GTP, CTP, and UTP

Nc1nc2c(ncn2[C@@H]2O[C@H](COP(=O)(O)OP(=O)(O)OP(=O)(O)O)[C@@H](O)[C@H]2O)c(=O)[nH]1 [GTP]
ΔTm (Fam20A [4]): Fam20A also binds other nucleoside triphosphates including GTP, CTP, and UTP

O=c1ccn([C@@H]2O[C@H](COP(=O)(O)OP(=O)(O)OP(=O)(O)O)[C@@H](O)[C@H]2O)c(=O)[nH]1 [UTP]
ΔTm (Fam20A [4]): Fam20A also binds other nucleoside triphosphates including GTP, CTP, and UTP

B1: Human Fam20A residues 69–529 (domain or fragment, UniProt Q96MK3 69-529, looked up)
chain: T1 sequence (Q96MK3 69-529)
notes: Fam20A, human, residues 69-529, secreted from a modified pI-secSUMOstar vector; the 6xHis-SUMO tag was removed by TEV protease; The only purified Fam20A construct that the methods describe; also called untagged Fam20A; purified Fam20A; source: Hi5 insect cells (baculovirus), conditioned medium, purified (Ni-NTA, Resource Q, Superdex 200); not shown: 6xHis, N-terminal, cleaved; SUMO, N-terminal, …
binding result [5]: binds

Source: paper PMC5413348, “Structure of Fam20A reveals a pseudokinase featuring a unique disulfide pattern and inverted ATP-binding” (eLife, 2017)
